Experimental data published in publication PMC7619385 (ACS infectious diseases, 2025).
Like-named read-outs stand apart in the source and are kept apart here.

Biological target: T1, LmxCLK1 (Leishmania mexicana, UniProt E9AMP2)
T1 sequence (E9AMP2 1-422): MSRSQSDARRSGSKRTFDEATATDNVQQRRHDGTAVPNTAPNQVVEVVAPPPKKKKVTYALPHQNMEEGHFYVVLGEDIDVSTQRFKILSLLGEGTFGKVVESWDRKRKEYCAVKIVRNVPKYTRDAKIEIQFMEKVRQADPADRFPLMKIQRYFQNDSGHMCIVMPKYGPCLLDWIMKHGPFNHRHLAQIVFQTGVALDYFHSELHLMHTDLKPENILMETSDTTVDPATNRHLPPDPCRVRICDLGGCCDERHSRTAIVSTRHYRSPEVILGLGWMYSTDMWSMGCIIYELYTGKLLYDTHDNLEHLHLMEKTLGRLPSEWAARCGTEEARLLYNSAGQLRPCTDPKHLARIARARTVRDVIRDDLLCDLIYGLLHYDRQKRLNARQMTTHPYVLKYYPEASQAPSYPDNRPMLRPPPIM
Test: biochemical
Type: binding

[1] = DSF, 10 µM compound, 2 µM LmxCLK1, Run 1, read-out: ΔTm Run 1
[2] = DSF, 10 µM compound, 2 µM LmxCLK1, Run 2, read-out: ΔTm Run 2
[3] = DSF, 10 µM compound, 2 µM LmxCLK1, mean of two runs, read-out: ΔTm Average
[4] = DSF, 10 µM compound, 2 µM LmxCLK1, Run 1
[5] = DSF, 10 µM compound, 2 µM LmxCLK1, Run 2
[6] = DSF, 10 µM compound, 2 µM LmxCLK1, mean of two runs

Row | SMILES | ΔTm at 10 µM [1] [°C] | ΔTm at 10 µM [2] [°C] | ΔTm at 10 µM [3] [°C] | also measured
1 | OCCn1cc(-c2ccc3c(c2)CC/C3=N\O)c(-c2ccncc2)n1 [GDC-0879] | 0 | -0.2 | -0.1 | –
2 | CS(=O)(=O)N1CCN(Cc2cc3nc(-c4cccc5[nH]ncc45)nc(N4CCOCC4)c3s2)CC1 [GDC-0941] | 0.1 | 0 | 0.1 | –
3 | Cc1c(CN2CCN(C(=O)[C@H](C)O)CC2)sc2c(N3CCOCC3)nc(-c3cnc(N)nc3)nc12 [GDC-0980 (RG7422)] | 0.1 | -0.1 | 0 | –
4 | CNc1nc(Nc2cn(C(C)(C)C#N)nc2C)ncc1C(F)(F)F [GNE-0877] | -0.1 | -0.2 | -0.1 | –
5 | CC1=C(C(=O)Nc2cc3cn[nH]c3cc2F)C(c2ccc(C(F)(F)F)cc2)CC(=O)N1 (stereo not drawn) [GSK429286A] | 0.1 | 0.2 | 0.1 | –
6 | C[C@@H](Oc1cc(-n2cnc3ccc(CN4CCN(C)CC4)cc32)sc1C(N)=O)c1ccccc1C(F)(F)F [GSK461364] | 0.6 | 0.1 | 0.4 | –
7 | CCn1c(-c2nonc2N)nc2c(C#CC(C)(C)O)ncc(OC[C@H]3CCCNC3)c21 [GSK690693] | 0.1 | -0.3 | -0.1 | –
8 | CNC(=O)c1c(F)cccc1Nc1nc(Nc2cc3c(cc2OC)CCN3C(=O)CN(C)C)nc2[nH]ccc12 [GSK1838705A] | – | – | – | ΔTm Average: -0.2; ΔTm Run 1: -0.1; ΔTm Run 2: -0.3
9 | CCc1cc(Nc2nccc(-c3c(-c4ccc(OC)c(C(=O)Nc5c(F)cccc5F)c4)nc4ccccn34)n2)c(OC)cc1N1CCC(N2CCN(S(C)(=O)=O)CC2)CC1 [GSK1904529A] | – | – | – | ΔTm Average: 0.2 °C; ΔTm Run 1: 0.2 °C; ΔTm Run 2: 0.1 °C
10 | COc1ncc(-c2ccc3nccc(-c4ccnnc4)c3c2)cc1NS(=O)(=O)c1ccc(F)cc1F [GSK2126458 (GSK458)] | – | – | – | ΔTm Run 1 [4]: -0.2 °C; ΔTm Run 2 [5]: -0.3 °C; ΔTm Average [6]: -0.3 °C
11 | CNc1nc(-c2ccc3c(N)n[nH]c3c2)cc(N2C[C@@H](C(=O)NC3CCCCC3)CC[C@H]2C)n1 [GSK2334470] | 0.3 | -0.5 | -0.1 | –
12 | O=c1c(-c2ccc(O)cc2)coc2cc(O)cc(O)c12 [Genistein] | 0.2 | 0.3 | 0.2 | –
13 | CN1CCN(C2CCN(C(=O)Nc3cc(Oc4ccc(NC(=O)C5(C(=O)Nc6ccc(F)cc6)CC5)c(F)c4)ccn3)CC2)CC1 [Golvatinib (E7050)] | – | – | – | ΔTm at 10 µM (read-out: ΔTm Average): 0.6 °C; ΔTm at 10 µM (read-out: ΔTm Run 1): 0.5 °C; ΔTm at 10 µM (read-out: ΔTm Run 2): 0.7 °C
14 | Cl.Cl.O=S(=O)(NCCNC/C=C/c1ccc(Br)cc1)c1cccc2cnccc12 [H 89 2HCl] | – | – | – | ΔTm Run 1 [4]: 0.2 °C; ΔTm Run 2 [5]: -0.1 °C; ΔTm Average [6]: 0.0 °C
15 | COc1ccc(S(=O)(=O)N(C(C)=O)c2ccccc2/C=C/c2cc[n+]([O-])cc2)cc1 [HMN-214] | 0.4 | 0.1 | 0.2 | –
16 | CCS(=O)(=O)Nc1ccc2c(c1)/C(=C(/Nc1ccc(CN3CCCCC3)cc1)c1ccccc1)C(=O)N2 [Hesperadin] | 1.7 | 1.3 | 1.5 | –
17 | C=CCc1ccc(O)c(-c2ccc(O)c(CC=C)c2)c1 [Honokiol] | -0.2 | 0.2 | 0 | –
18 | O=C(Nc1cc(C(F)(F)F)cc(C(F)(F)F)c1)c1cc(Cl)ccc1O [IMD 0354] | 0.2 | -0.1 | 0 | –
19 | C=CC(=O)N1CCC[C@@H](n2nc(-c3ccc(Oc4ccccc4)cc3)c3c(N)ncnc32)C1 [Ibrutinib (PCI-32765)] | – | – | – | ΔTm Run 1 [4]: 0.2 °C; ΔTm Run 2 [5]: -0.2 °C; ΔTm Average [6]: 0.0 °C
20 | C#Cc1cccc(Nc2ncnc3cc4c(cc23)OCCOCCOCCO4)c1 [Icotinib] | -0.3 | -0.2 | -0.3 | –
21 | O=C1Nc2ccccc2/C1=C1/Nc2ccccc2C1=O [Indirubin] | – | – | – | ΔTm at 10 µM (read-out: ΔTm Average): 0 °C; ΔTm at 10 µM (read-out: ΔTm Run 1): 0.1 °C; ΔTm at 10 µM (read-out: ΔTm Run 2): -0.1 °C
22 | Nc1nc(Nc2ccc(S(N)(=O)=O)cc2)nn1C(=O)c1c(F)cccc1F [JNJ-7706621] | 1.4 | 1.7 | 1.6 | –
23 | Cn1cc(-c2ccc3nnc(C(F)(F)c4ccc5ncccc5c4)n3n2)cn1 [JNJ-38877605] | – | – | – | ΔTm Average: -0.3; ΔTm Run 1: -0.1; ΔTm Run 2: -0.4
